In US20230143612A1 (Arbutus Biopharma Corporation, priority 2020, published 2023):

Target: PD-L1 His protein / PD-1 Fc protein (Homo sapiens, UniProt Q9NZQ7)
Assay: HTRF Assay (PD-1/PD-L1 interaction)
Type: binding
Details: PD-L1 His 6 nM, PD-1 Fc 6 nM
Procedure, shortened: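 HTRF: PD-L1 His (6 nM final), compound (3-fold dilutions, 20 μM to 0.001 μM final) and PD-1 Fc (6 nM final) preincubated 15 min at room temperature. Anti-human IgG-XL665 and anti-6HIS Tb cryptate (mixed at 6.7 nM and 0.35 nM) then added for 1 h at room temperature before reading.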

Sequence of PD-L1 His protein / PD-1 Fc protein (Q9NZQ7 19-238 limits assumed): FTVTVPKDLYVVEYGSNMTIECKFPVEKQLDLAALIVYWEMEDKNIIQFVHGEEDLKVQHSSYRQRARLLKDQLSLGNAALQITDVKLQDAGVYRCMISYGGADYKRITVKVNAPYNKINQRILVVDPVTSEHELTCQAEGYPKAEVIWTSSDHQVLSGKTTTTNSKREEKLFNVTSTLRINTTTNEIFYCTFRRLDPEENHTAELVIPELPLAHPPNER

| Structure (SMILES) | IC50 |
| --- | --- |
| COc1nc(-c2cccc(-c3cccc(-c4ccn5c(=O)c(CNC6CCS(=O)(=O)CC6)cnc5c4)c3Cl)c2Cl)ccc1CNC[C@@H]1CCC(=O)N1 [Example 224, (S)-8-(2,2′-dichloro-3′-(6-methoxy-5-((((5-oxopyrrolidin-2-yl)-methyl)amino)-methyl)-pyridin-2-yl)-[1,1′-biphenyl]-3-yl)-3-(((1,1-dioxidotetrahydro-2H-thiopyran-4-yl)-amino)methyl)-4H-pyrido[1,2-a]-pyrimidin-4-one] | 2.8 nM |
| COc1nc(-c2cccc(-c3cccc(-c4cc(C)n5c(=O)c(CNC[C@H](C)O)cnc5c4)c3Cl)c2Cl)ccc1CNC[C@@H]1CCC(=O)N1 [Example 226, 8-(2,2′-Dichloro-3′-(6-methoxy-5-(((((S)-5-oxopyrrolidin-2-yl)methyl)amino)methyl)pyridin-2-yl)-[1,1′-biphenyl]-3-yl)-3-((((S)-2-hydroxypropyl)amino)methyl)-6-methyl-4H-pyrido[1,2-a]pyrimidin-4-one] | 15 nM |
| COc1nc(-c2cccc(-c3cccc(-c4ccn5c(=O)c(CNC[C@@H]6CCC(=O)N6)c(Cl)nc5c4)c3Cl)c2Cl)ccc1CNC[C@@H]1CCC(=O)N1 [Example 227, 2-Chloro-8-(2,2′-dichloro-3′-(6-methoxy-5-(((((S)-5-oxopyrrolidin-2-yl)methyl)amino)methyl)pyridin-2-yl)-[1,1′-biphenyl]-3-yl)-3-(((((S)-5-oxopyrrolidin-2-yl)methyl)amino)methyl)-4H-pyrido[1,2-a]pyrimidin-4-one] | 12 nM |
| COc1cc2c(cc1CNC[C@@H]1CCC(=O)N1)CCC2=Cc1cccc(-c2cccc(-c3ccc(CNC[C@@H]4CCC(=O)N4)c(OC)n3)c2Cl)c1Cl [Example 228, (S)-5-((((6-(2,2′-Dichloro-3′-((6-methoxy-5-(((((S)-5-oxopyrrolidin-2-yl)methyl)amino)methyl)-2,3-dihydro-1H-inden-1-ylidene)methyl)-[1,1′-biphenyl]-3-yl)-2-methoxypyridin-3-yl)methyl)amino)methyl)pyrrolidin-2-one] | 3200 nM |
| COc1nc(-c2cccc(-c3cccc(-c4ccn5c(=O)c(CN[C@H]6C[C@@](C)(O)C6)c(C)nc5c4)c3Cl)c2Cl)ccc1CNC[C@@H]1CCC(=O)N1 [Example 229, 8-(2,2′-Dichloro-3′-(6-methoxy-5-(((((S)-5-oxopyrrolidin-2-yl)methyl)amino)methyl)pyridin-2-yl)-[1,1′-biphenyl]-3-yl)-3-((((1s,3s)-3-hydroxy-3-methylcyclobutyl)amino)methyl)-2-methyl-4H-pyrido[1,2-a]pyrimidin-4-one] | 6.9 nM |
| COc1nc(-c2cccc(-c3cccc(-c4ccn5c(=O)c(CN[C@H]6C[C@@](C)(O)C6)c(C)nc5c4)c3Cl)c2Cl)ccc1CN[C@H]1C[C@@](C)(O)C1 [Example 230, 8-(2,2′-Dichloro-3′-(5-((((1s,3s)-3-hydroxy-3-methylcyclobutyl)amino)methyl)-6-methoxypyridin-2-yl)-[1,1′-biphenyl]-3-yl)-3-((((1s,3s)-3-hydroxy-3-methylcyclobutyl)amino)methyl)-2-methyl-4H-pyrido[1,2-a]pyrimidin-4-one] | 98 nM |
| COC(=O)C[C@H](O)CNCc1ccc(-c2cccc(-c3cccc(-c4ccn5c(=O)c(CNC[C@@H](O)CC(=O)OC)cnc5c4)c3Cl)c2Cl)nc1OC [Example 231, Methyl (3S)-4-[[6-[2-chloro-3-[2-chloro-3-[3-[[[(2S)-2-hydroxy-4-methoxy-4-oxo-butyl]amino]methyl]-4-oxo-pyrido[1,2-a]pyrimidin-8-yl]phenyl]phenyl]-2-methoxy-3-pyridyl]methylamino]-3-hydroxy-butanoate] | 120 nM |
| COc1nc(-c2cccc(-c3cccc(-c4cc(F)c(CNC[C@@H]5CCC(=O)N5)c(OC)n4)c3Cl)c2Cl)ccc1CNC[C@@H]1CCC(=O)N1 [Example 232, (S)-5-((((6-(2,2′-dichloro-3′-(4-fluoro-6-methoxy-5-(((((S)-5-oxopyrrolidin-2-yl)methyl)amino)methyl)pyridin-2-yl)-[1,1′-biphenyl]-3-yl)-2-methoxypyridin-3-yl)methyl)amino)methyl)pyrrolidin-2-one] | 63 nM |
| COc1nc(-c2cccc(-c3cccc(-c4ccn5c(=O)c(CNCC6(O)CCC6)cnc5c4)c3Cl)c2Cl)ccc1CNC[C@@H]1CCC(=O)N1 [Example 233, (S)-8-(2,2′-Dichloro-3′-(6-methoxy-5-((((5-oxopyrrolidin-2-yl)methyl)amino)methyl)pyridin-2-yl)-[1,1′-biphenyl]-3-yl)-3-((((1-hydroxycyclobutyl)methyl)amino)methyl)-4H-pyrido[1,2-a]pyrimidin-4-one] | 0.2 nM |
| COc1nc(-c2cccc(-c3cccc(-c4ccn5c(=O)c(CNCC6(O)CC6)cnc5c4)c3Cl)c2Cl)ccc1CNC[C@@H]1CCC(=O)N1 [Example 234, (S)-8-(2,2′-Dichloro-3′-(6-methoxy-5-((((5-oxopyrrolidin-2-yl)methyl)amino)methyl)pyridin-2-yl)-[1,1′-biphenyl]-3-yl)-3-((((1-hydroxycyclopropyl)methyl)amino)methyl)-4H-pyrido[1,2-a]pyrimidin-4-one] | 0.1 nM |
| COc1nc(-c2cccc(-c3cccc(-c4cc(F)c(CNC[C@@H]5CCC(=O)N5)c(OC)n4)c3Cl)c2Cl)cc(F)c1CNC[C@@H]1CCC(=O)N1 [Example 236, (5S,5′S)-5,5′-(((((2,2′-dichloro-[1,1′-biphenyl]-3,3′-diyl)bis(4-fluoro-2-methoxypyridine-6,3-diyl))bis(methylene))bis(azanediyl))bis(methylene))bis(pyrrolidin-2-one)] | 1.2 nM |
| NC1(Cc2ccc(-c3cccc(-c4cccc(-c5ccn6c(=O)c(CNC[C@@H]7CCC(=O)N7)cnc6c5)c4Cl)c3Cl)cc2)CC1 [Example 237, (S)-8-(4″-((1-Aminocyclopropyl)methyl)-2,2′-dichloro-[1,1′:3′,1″-terphenyl]-3-yl)-3-((((5-oxopyrrolidin-2-yl)methyl)amino)methyl)-4H-pyrido[1,2-a]pyrimidin-4-one] | 900 nM |
| COc1nc(-c2cccc(-c3cccc(-c4ccn5c(=O)c(CNC[C@@H](O)CC(N)=O)cnc5c4)c3Cl)c2Cl)ccc1CNC[C@@H]1CCC(=O)N1 [Example 238, (3S)-4-[[8-[2-chloro-3-[2-chloro-3-[6-methoxy-5-[[[(2S)-5-oxopyrrolidin-2-yl]methylamino]methyl]-2-pyridyl]phenyl]phenyl]-4-oxo-pyrido[1,2-a]pyrimidin-3-yl]methylamino]-3-hydroxy-butanamide] | 0.1 nM |
| COc1nc(-c2cccc(-c3cccc(-c4ccc5nn(CCO)c(=O)n5c4)c3Cl)c2Cl)ccc1CNC[C@@H]1CCC(=O)N1 [Example 239, (S)-6-(2,2′-Dichloro-3′-(6-methoxy-5-((((5-oxopyrrolidin-2-yl)methyl)amino)methyl)pyridin-2-yl)-[1,1′-biphenyl]-3-yl)-2-(2-hydroxyethyl)-[1,2,4]triazolo[4,3-a]pyridin-3(2H)-one] | 0.1 nM |
| COc1nc(-c2cccc(-c3cccc(-c4nnc5n4CCNC5)c3Cl)c2Cl)ccc1CNC[C@@H]1CCC(=O)N1 [Example 240, (S)-5-((((6-(2,2′-Dichloro-3′-(5,6,7,8-tetrahydro-[1,2,4]triazolo[4,3-a]pyrazin-3-yl)-[1,1′-biphenyl]-3-yl)-2-methoxypyridin-3-yl)methyl)amino)methyl)pyrrolidin-2-one] | 350 nM |
